Read-outs that look alike come from different tables or passages of the source.
Columns and labels:
MELK = MELK (Homo sapiens, UniProt Q14680); experiment: Kinase assay: MELK activity, phosphorylation of FITC-labeled histone H3 peptide measured by IMAP fluorescence polarization; format: biochemical; conditions: read-out: IC50 (μM) (kinase assay)
Procedure, shortened: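 FP readout: FITC-histone H3 peptide phosphorylation, read 0.5 h (RT) after stopping with 3x volume of IMAP progressive binding solution. Final DMSO 1%.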

HT-1197 cells = experiment: Cell-based assay: anti-proliferative activity, Cell Counting Kit-8, 72 hours (HT-1197, negative control without MELK expression); conditions: Homo sapiens, HT1197, 72 h
Procedure, shortened: (§1)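 Cellular growth is read by CCK-8 colorimetric kit 72 h after inhibitor addition to seeded cells, and IC50 values are derived from the resulting data; MELK protein levels in these lines are checked beforehand by immunoblotting whole crude lysate.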

A549 cells = experiment: Cell-based assay: anti-proliferative activity, Cell Counting Kit-8, 72 hours (A549)
Procedure, shortened: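 A549 cells seeded in 96-well plates and exposed to candidate inhibitors for 72 hours. Growth measured with Cell Counting Kit-8; IC50 values calculated from the dose response.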

DU4475 = experiment: Cell-based assay: anti-proliferative activity, Cell Counting Kit-8, 72 hours (DU4475); conditions: Homo sapiens, DU-4475, DU4475 cells
T47D cells = experiment: Cell-based assay: anti-proliferative activity, Cell Counting Kit-8, 72 hours (T47D)
Procedure, shortened: as §1

BT-549 cells = experiment: Cell-based assay: anti-proliferative activity, Cell Counting Kit-8, 72 hours (BT-549); conditions: Homo sapiens, BT-549, 72 h, BT549 cells, MELK-expressing; Cell Counting Kit-8 at 72 hours
Procedure, shortened: as §1

[1] = 50 micro-M ATP, FITC-labeled histone H3 peptide substrate, IMAP fluorescence polarization
[2] = HT1197 cells (negative control, no MELK expression), 72 hours
[3] = Homo sapiens, A549, 72 h, 72 hours
[4] = HT1197 cells, no MELK expression (negative control), Cell Counting Kit-8 at 72 hours
[5] = Homo sapiens, A549, 72 h, MELK-expressing, Cell Counting Kit-8 at 72 hours
[6] = Homo sapiens, T47D, 72 h, MELK-expressing, Cell Counting Kit-8 at 72 hours

Sequence of MELK (Q14680 whole entry, looked up): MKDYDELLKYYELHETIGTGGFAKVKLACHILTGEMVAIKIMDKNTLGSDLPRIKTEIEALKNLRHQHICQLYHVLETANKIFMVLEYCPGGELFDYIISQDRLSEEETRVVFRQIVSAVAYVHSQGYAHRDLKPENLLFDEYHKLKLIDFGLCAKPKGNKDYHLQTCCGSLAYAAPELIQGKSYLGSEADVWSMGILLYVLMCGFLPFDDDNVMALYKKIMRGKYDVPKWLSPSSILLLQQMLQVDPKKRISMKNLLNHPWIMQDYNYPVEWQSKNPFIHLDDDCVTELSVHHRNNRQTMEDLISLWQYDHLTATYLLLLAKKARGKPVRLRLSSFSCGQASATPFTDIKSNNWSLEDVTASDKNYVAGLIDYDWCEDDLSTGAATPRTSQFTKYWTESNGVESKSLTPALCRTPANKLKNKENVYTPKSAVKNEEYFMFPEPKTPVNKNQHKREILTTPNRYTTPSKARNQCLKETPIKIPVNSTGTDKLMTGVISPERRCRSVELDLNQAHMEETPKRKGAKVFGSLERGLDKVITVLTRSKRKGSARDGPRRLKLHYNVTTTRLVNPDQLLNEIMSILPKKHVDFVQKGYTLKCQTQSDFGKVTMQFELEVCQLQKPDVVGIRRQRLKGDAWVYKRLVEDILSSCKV

Structure (SMILES) | IC50 (MELK; [1]) | IC50 (HT-1197 cells; [2]) | IC50 (A549 cells; [3]) | IC50 (DU4475) | IC50 (T47D cells; Homo sapiens, T47D, 72 h) | IC50 (MELK) | IC50 (A549 cells; 72 hours) | IC50 (T47D cells; 72 hours) | IC50 (HT-1197 cells; [4]) | IC50 (A549 cells; [5]) | IC50 (BT-549 cells) | IC50 (T47D cells; [6]) | IC50 (A549 cells; MELK-expressing, Cell Counting Kit-8 at 72 hours)
CN(C)CC1CCN(c2c([S+](C)[O-])cnc3ccc(-c4ccc(O)c(Cl)c4)cc23)CC1 (stereo not drawn) [Example 466] | 0.016 µM | 6.7 µM | 1.9 µM | 1.1 µM | 0.67 µM | – | – | – | – | – | – | – | –
COc1cc(-c2ccc3ncc([S+](C)[O-])c(N[C@H]4CC[C@H](N)CC4)c3c2)cc(Cl)c1O (stereo partly drawn) [Example 500] | – | 13 µM | 4.5 µM | 1.8 µM | 1.6 µM | – | – | – | – | – | – | – | –
CN1CCN(c2ccc(Nc3c(C(=O)C4CC4)cnc4ccc(-c5cnc(C#N)nc5)cc34)cn2)CC1 [Example 469] | – | 1.4 µM | 0.99 µM | 0.43 µM | 0.18 µM | 0.0015 µM | – | – | – | – | – | – | –
CC(C)C(=O)c1cnc2ccc(-c3cc4cc(O)ccc4[nH]3)cc2c1N[C@H]1CC[C@H](N)CC1 [Example 480] | – | 4.6 µM | 2.7 µM | 0.93 µM | 0.59 µM | 0.054 µM | – | – | – | – | – | – | –
CC(=O)c1cnc2ccc(-c3cc(Cl)c(O)c(Cl)c3)cc2c1Nc1ccc(CN2CCCC2)cc1 [Example 415, 1-(6-(3,5-dichloro-4-hydroxyphenyl)-4-((4-(pyrrolidin-1-ylmethyl)phenyl)amino)quinolin-3-yl)ethanone] | 0.035 µM | 10 µM | 0.15 µM | 0.067 µM | 0.12 µM | – | – | – | – | – | – | – | –
CN1CCN(c2ccc(Nc3c(C(=O)C4CC4)cnc4ccc(-c5cc(Cl)c(O)c(Cl)c5)cc34)cn2)CC1 [Example 472] | – | 5.7 µM | 0.18 µM | 0.11 µM | 0.3 µM | 0.023 µM | – | – | – | – | – | – | –
COc1cc(-c2ccc3ncc(C(C)=O)c(N[C@H]4CC[C@H](CN(C)C)CC4)c3c2)cc(Cl)c1O [Example 392] | 0.0034 µM | 10 µM | 0.27 µM | 0.44 µM | 0.25 µM | – | – | – | – | – | – | – | –
COc1cc(-c2ccc3ncc(C(=O)C4CC4)c(Nc4ccc(CN)cc4)c3c2)cc(Cl)c1O [Example 506, (4-(4-(aminomethyl)phenylamino)-6-(3-chloro-4-hydroxy-5-methoxyphenyl)quinolin-3-yl)(cyclopropyl)methanone] | – | 0.74 µM | 0.18 µM | 0.13 µM | 0.15 µM | 0.0032 µM | – | – | – | – | – | – | –
C[S+]([O-])c1cnc2ccc(-c3ccc(O)c(Cl)c3)cc2c1N[C@H]1CC[C@H](N)CC1 (stereo partly drawn) [Example 499] | – | 18 µM | 9.7 µM | 2.5 µM | 2.7 µM | 0.036 µM | – | – | – | – | – | – | –
COc1cc(-c2ccc3ncc(C(=O)C4CC4)c(Nc4cnc(N5CCNCC5)nc4)c3c2)cc(Cl)c1O [Example 503, (6-(3-chloro-4-hydroxy-5-methoxyphenyl)-4-(2-(piperazin-1-yl)pyrimidin-5-ylamino)quinolin-3-yl)(cyclopropyl)methanone] | – | 1.1 µM | 0.37 µM | 0.46 µM | 0.24 µM | 0.0047 µM | – | – | – | – | – | – | –
CN1CCN(c2ccc(Nc3c(C(=O)C4CC4)cnc4ccc(-c5cc(F)c(O)c(Cl)c5)cc34)cn2)CC1 [Example 471] | – | 2.8 µM | 0.21 µM | 0.14 µM | 0.14 µM | 0.011 µM | – | – | – | – | – | – | –
CN(C)Cc1ccc(Nc2c(S(C)(=O)=O)cnc3ccc(-c4cc(F)c(O)c(Cl)c4)cc23)cc1 [Example 399, 2-chloro-4-(4-(4-((dimethylamino)methyl)phenylamino)-3-(methylsulfonyl)quinolin-6-yl)-6-fluorophenol] | 0.016 µM | 1.9 µM | 0.47 µM | 0.16 µM | 0.27 µM | – | – | – | – | – | – | – | –
COc1cc(-c2ccc3ncc(C(=O)C4CC4)c(Nc4ccc(N5CCN(C)CC5)nc4)c3c2)cc(Cl)c1O [Example 470] | – | 2.2 µM | 0.56 µM | 0.68 µM | 0.26 µM | 0.015 µM | – | – | – | – | – | – | –
COc1cc(-c2ccc3ncc(C(=O)C4CC4)c(-c4ccc(N5CCN(C)CC5)cc4)c3c2)cc(Cl)c1O [Example 438, (6-(3-chloro-4-hydroxy-5-methoxyphenyl)-4-(4-(4-methylpiperazin-1-yl)phenyl)quinolin-3-yl)(cyclopropyl)methanone] | 0.018 µM | 6.5 µM | 0.25 µM | 0.49 µM | 0.39 µM | – | – | – | – | – | – | – | –
CC(=O)c1cnc2ccc(-c3cc(F)c(O)c(Cl)c3)cc2c1Nc1ccc(N2CCN(C)CC2)nc1 [Example 487, 1-(6-(3-Chloro-5-fluoro-4-hydroxyphenyl)-4-(6-(4-methylpiperazin-1-yl)pyridin-3-ylamino)quinolin-3-yl)ethanone] | – | 1.4 µM | – | 0.1 µM | – | 0.01 µM | 0.088 µM | 0.041 µM | – | – | – | – | –
CN(C)C[C@H]1CC[C@H](Nc2c(S(C)(=O)=O)cnc3ccc(-c4cc(Cl)c(O)c(Cl)c4)cc23)CC1 [Example 420, 2,6-dichloro-4-(4-((1R,4R)-4-((dimethylamino)methyl)cyclohexylamino)-3-(methylsulfonyl)quinolin-6-yl)phenol] | 0.0023 µM | 2.5 µM | 0.69 µM | 0.14 µM | 0.47 µM | – | – | – | – | – | – | – | –
NCc1ccc(Nc2c(C(=O)C3CC3)cnc3ccc(-c4cc(Cl)c(O)c(Cl)c4)cc23)cc1 [Example 507, {4-[4-(Aminomethyl)phenylamino]-6-(3,5-dichloro-4-hydroxyphenyl)quinolin-3-yl}(cyclopropyl)methanone] | – | 0.58 µM | 0.059 µM | 0.018 µM | 0.094 µM | 0.0038 µM | – | – | – | – | – | – | –
O=C(c1cnc2ccc(-c3cc(F)c(O)c(Cl)c3)cc2c1Nc1cnc(N2CCNCC2)nc1)C1CC1 [Example 496, (6-(3-chloro-5-fluoro-4-hydroxyphenyl)-4-((2-(piperazin-1-yl)pyrimidin-5-yl)amino)quinolin-3-yl)(cyclopropyl)methanone] | – | 0.64 µM | 0.079 µM | 0.068 µM | 0.036 µM | 0.0048 µM | – | – | – | – | – | – | –
COc1cc(-c2ccc3ncc(C(=O)C4CC4)c(N4CCN(C(=O)CN(C)C)CC4)c3c2)cc(Cl)c1O [Example 437, 1-(4-(6-(3-chloro-4-hydroxy-5-methoxyphenyl)-3-(cyclopropanecarbonyl)quinolin-4-yl)piperazin-1-yl)-2-(dimethylamino)ethanone] | 0.0011 µM | 1.7 µM | 0.19 µM | 0.22 µM | 0.28 µM | – | – | – | – | – | – | – | –
N#Cc1ncc(-c2ccc3ncc(C(=O)C4CC4)c(Nc4ccc(CN)cc4)c3c2)cn1 [Example 509, 5-(4-(4-(aminomethyl)phenylamino)-3-(cyclopropanecarbonyl)quinolin-6-yl)pyrimidine-2-carbonitrile] | – | 0.95 µM | 0.79 µM | 0.6 µM | 0.19 µM | – | – | – | – | – | – | – | –
COc1cc(-c2ccc3ncc(C#N)c(N[C@H]4CC[C@H](N(C)C)CC4)c3c2)cc(Cl)c1O [Example 447] | – | 2 µM | 0.4 µM | 0.076 µM | 0.15 µM | – | – | – | – | – | – | – | –
CN(C)Cc1ccc(Nc2c([S+](C)[O-])cnc3ccc(-c4cc(Cl)c(O)c(Cl)c4)cc23)cc1 (stereo not drawn) [Example 473] | – | 2.4 µM | 1.2 µM | 0.6 µM | 0.43 µM | – | – | – | – | – | – | – | –
O=C(c1cnc2ccc(-c3cc(Cl)c(O)c(Cl)c3)cc2c1Nc1ccc(CN2CCOCC2)cc1)C1CC1 [Example 463] | – | 3.6 µM | 0.43 µM | 0.26 µM | 0.52 µM | – | – | – | – | – | – | – | –
COc1cc(-c2ccc3ncc(C(=O)C4CC4)c(N4CCC(C(C)N(C)C)CC4)c3c2)cc(Cl)c1O (stereo not drawn) [Example 250, [6-(3-Chloro-4-hydroxy-5-methoxyphenyl)-4-{4-[1-(dimethylamino)ethyl]piperidin-1-yl}quinolin-3-yl](cyclopropyl)methanone] | 0.0013 µM | – | – | – | – | – | – | – | 1.7 µM | 0.11 µM | 0.61 µM | 0.16 µM | –
COc1cc(-c2ccc3ncc(C(=O)C4CC4)c(N4CCC(CN5CCOCC5)CC4)c3c2)cc(Cl)c1O [Example 334, {6-(3-Chloro-4-hydroxy-5-methoxyphenyl)-4-[4-(morpholinomethyl)piperidin-1-yl]quinolin-3-yl}(cyclopropyl)methanone] | 0.0081 µM | – | – | – | – | – | – | – | 4.8 µM | 0.41 µM | 0.77 µM | 0.55 µM | –
CCN(CC)C1CCC(Nc2c(C(=O)C3CC3)cnc3ccc(-c4cc(Cl)c(O)c(OC)c4)cc23)CC1 (stereo not drawn) [Example 185(a), {6-(3-Chloro-4-hydroxy-5-methoxyphenyl)-4-[4-(diethylamino)cyclohexylamino]quinolin-3-yl}(cyclopropyl)methanone] | 0.0026 µM | – | – | – | – | – | – | – | 6.9 µM | – | 2 µM | 0.59 µM | 0.42 µM
CN1CCN(Cc2ccc(-c3c(C(=O)C4CC4)cnc4ccc(-c5cc(Cl)c(O)c(Cl)c5)cc34)cc2)CC1 [Example 482, cyclopropyl(6-(3,5-dichloro-4-hydroxyphenyl)-4-(4-((4-methylpiperazin-1-yl)methyl)phenyl)quinolin-3-yl)methanone] | – | 3.1 µM | 0.96 µM | 0.9 µM | 0.54 µM | – | – | – | – | – | – | – | –

Reference: patent US9120749B2, “Quinoline derivatives and MELK inhibitors containing the same” (ONCOTHERAPY SCIENCE, INC., priority 2010, dated 2015)
